Source: PubChem BioAssay (NCI)
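All cell lines were grown in 96-well plates and treated with compound for 48 hours. GI50 marks 50% less growth. TGI: concentration producing complete growth inhibition.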

Key:
Experiment in all cases: inhibition of tumour cell growth, NCI panel, 48 h
[1] = system: CCRF-CEM leukemia
[2] = system: ACHN renal
[3] = system: SK-OV-3 ovarian
[4] = system: KM12 colon
[5] = system: NCI-H226 lung
[6] = system: SNB-75 CNS
[7] = system: UACC-62 melanoma
[8] = system: SF-295 CNS
[9] = system: A498 renal
[10] = system: HOP-62 NSCLC
[11] = system: UACC-257 melanoma
[12] = system: HCT-15 colon
[13] = system: SR leukemia
[14] = system: OVCAR-8 ovarian
[15] = system: HCT-116 colon
[16] = system: NCI/ADR-RES ovarian
[17] = system: RPMI-8226 leukemia
[18] = system: NCI-H460 lung
[19] = system: IGROV1 ovarian
[20] = system: MCF7 breast
[21] = system: CAKI-1 renal
[22] = system: SK-MEL-28 melanoma
[23] = system: MDA-MB-435
[24] = system: HCC-2998 colon
[25] = system: U251 CNS
[26] = system: SW-620 colon
[27] = system: K-562 leukemia
[28] = system: RXF 393 renal
[29] = system: A549 NSCLC
[30] = system: COLO 205 colon
[31] = system: 786-0 renal
[32] = system: SN12C renal
[33] = system: MDA-MB-231 breast
[34] = system: HS 578T breast
[35] = system: DU-145 prostate
[36] = system: MOLT-4 leukemia
[37] = system: HOP-92 NSCLC
[38] = system: HT29 colon
[39] = system: OVCAR-5 ovarian
[40] = system: SK-MEL-5 melanoma
[41] = system: M14 melanoma
[42] = system: LOX IMVI melanoma
[43] = system: UO-31 renal
[44] = system: NCI-H522 lung
[45] = system: SF-539 CNS
[46] = system: NCI-H23 lung
[47] = system: TK-10 renal
[48] = system: PC-3 prostate
[49] = system: SNB-19 CNS
[50] = system: OVCAR-4 ovarian
[51] = system: SK-MEL-2 melanoma
[52] = system: T-47D breast
[53] = system: EKVX NSCLC
[54] = system: SF-268 CNS
[55] = system: BT-549 breast
[56] = system: OVCAR-3 ovarian
[57] = system: HL-60(TB) leukemia
[58] = system: MALME-3M melanoma

SMILES: O=C1OCC2=C1C(c1cccc(F)c1)c1cc3c(cc1N2CCO)OCO3 (configuration not stated)
- GI50 [1]: 2.37 µM
- TGI [1]: > 50 µM
- GI50 [2]: 3.03 µM
- TGI [2]: > 50 µM
- GI50 [3]: 1.73 µM
- TGI [3]: > 50 µM
- GI50 [4]: 1.48 µM
- TGI [4]: > 50 µM
- GI50 [5]: > 50 µM
- TGI [5]: > 50 µM
- GI50 [6]: 0.82 µM
- TGI [6]: 2.8 µM
- GI50 [7]: 2.25 µM
- TGI [7]: > 50 µM
- GI50 [8]: 1.2 µM
- TGI [8]: > 50 µM
- GI50 [9]: 1.11 µM
- TGI [9]: 4.87 µM
- GI50 [10]: 2.19 µM
- TGI [10]: > 50 µM
- GI50 [11]: > 50 µM
- TGI [11]: > 50 µM
- GI50 [12]: 1.08 µM
- TGI [12]: > 50 µM
- GI50 [13]: 0.294 µM
- TGI [13]: > 50 µM
- GI50 [14]: 3.18 µM
- TGI [14]: > 50 µM
- GI50 [15]: 1.53 µM
- TGI [15]: > 50 µM
- GI50 [16]: 2.02 µM
- TGI [16]: > 50 µM
- GI50 [17]: 2.28 µM
- TGI [17]: > 50 µM
- GI50 [18]: 2.08 µM
- TGI [18]: > 50 µM
- GI50 [19]: 4.19 µM
- TGI [19]: > 50 µM
- GI50 [20]: 1.44 µM
- TGI [20]: > 50 µM
- GI50 [21]: 1.24 µM
- TGI [21]: > 50 µM
- GI50 [22]: 20.3 µM
- TGI [22]: > 50 µM
- GI50 [23]: 0.187 µM
- TGI [23]: 1.57 µM
- GI50 [24]: 7.06 µM
- TGI [24]: > 50 µM
- GI50 [25]: 2.5 µM
- TGI [25]: > 50 µM
- GI50 [26]: 1.65 µM
- TGI [26]: > 50 µM
- GI50 [27]: 0.353 µM
- TGI [27]: > 50 µM
- GI50 [28]: 1.51 µM
- TGI [28]: 4.96 µM
- GI50 [29]: 8.74 µM
- TGI [29]: > 50 µM
- GI50 [30]: 1.48 µM
- TGI [30]: 15.1 µM
- GI50 [31]: 1.86 µM
- TGI [31]: > 50 µM
- GI50 [32]: 3.05 µM
- TGI [32]: > 50 µM
- GI50 [33]: 3.09 µM
- TGI [33]: > 50 µM
- GI50 [34]: 1.42 µM
- TGI [34]: > 50 µM
- GI50 [35]: 2.71 µM
- TGI [35]: > 50 µM
- GI50 [36]: 3.02 µM
- TGI [36]: > 50 µM
- GI50 [37]: 3.1 µM
- TGI [37]: > 50 µM
- GI50 [38]: 1.52 µM
- TGI [38]: > 50 µM
- GI50 [39]: 4.33 µM
- TGI [39]: > 50 µM
- GI50 [40]: 1.26 µM
- TGI [40]: > 50 µM
- GI50 [41]: 0.357 µM
- TGI [41]: > 50 µM
- GI50 [42]: 2.35 µM
- TGI [42]: > 50 µM
- GI50 [43]: 2.88 µM
- TGI [43]: > 50 µM
- GI50 [44]: 0.259 µM
- TGI [44]: 29 µM
- GI50 [45]: 1.13 µM
- TGI [45]: 3.61 µM
- GI50 [46]: 3.96 µM
- TGI [46]: > 50 µM
- GI50 [47]: 15.6 µM
- TGI [47]: > 50 µM
- GI50 [48]: 1.46 µM
- TGI [48]: > 50 µM
- GI50 [49]: 3 µM
- TGI [49]: > 50 µM
- GI50 [50]: 46.8 µM
- TGI [50]: > 50 µM
- GI50 [51]: 2.46 µM
- TGI [51]: > 50 µM
- GI50 [52]: 2.18 µM
- TGI [52]: > 50 µM
- GI50 [53]: 3.03 µM
- TGI [53]: > 50 µM
- GI50 [54]: 3.2 µM
- TGI [54]: > 50 µM
- GI50 [55]: 1.46 µM
- TGI [55]: > 50 µM
- GI50 [56]: 1.27 µM
- TGI [56]: > 50 µM

SMILES: CC(C)=CCN1c2ccccc2NC(=O)CC1C (configuration not stated)
- TGI [1]: > 100 µM
- TGI [2]: > 100 µM
- TGI [3]: > 100 µM
- TGI [4]: > 100 µM
- TGI [5]: > 100 µM
- TGI [8]: > 100 µM
- TGI [9]: > 100 µM
- TGI [10]: > 100 µM
- TGI [57]: > 100 µM
- TGI [11]: > 100 µM
- TGI [12]: > 100 µM
- TGI [13]: > 100 µM
- TGI [14]: > 100 µM
- TGI [16]: > 100 µM
- TGI [17]: > 100 µM
- TGI [18]: > 100 µM
- TGI [19]: > 100 µM
- TGI [20]: > 100 µM
- TGI [21]: > 100 µM
- TGI [58]: > 100 µM
- TGI [22]: > 100 µM
- TGI [23]: > 100 µM
- TGI [24]: > 100 µM
- TGI [25]: > 100 µM
- TGI [26]: > 100 µM
- TGI [27]: > 100 µM
- TGI [28]: > 100 µM
- TGI [29]: > 100 µM
- TGI [30]: > 100 µM
- TGI [31]: > 100 µM
- TGI [32]: 81.2 µM
- TGI [33]: > 100 µM
- TGI [34]: > 100 µM
- TGI [35]: > 100 µM
- TGI [36]: > 100 µM
- TGI [37]: > 100 µM
- TGI [38]: > 100 µM
- TGI [39]: > 100 µM
- TGI [40]: 85 µM
- TGI [41]: > 100 µM
- TGI [42]: > 100 µM
- TGI [43]: > 100 µM
- TGI [44]: > 100 µM
- TGI [45]: > 100 µM
- TGI [46]: > 100 µM
- TGI [47]: > 100 µM
- TGI [48]: > 100 µM
- TGI [49]: > 100 µM
- TGI [50]: 73.8 µM
- TGI [51]: > 100 µM
- TGI [52]: > 100 µM
- TGI [53]: > 100 µM
- TGI [54]: > 100 µM
- TGI [55]: 55 µM
- TGI [56]: > 100 µM
